Like-named read-outs stand apart in the source and are kept apart here.
What was measured:
Venturia inaequalis = assay: In vivo fungicidal activity, Apple Scab (AS); note: ranges in brackets are in %
Plasmopara viticola = assay: In vivo fungicidal activity, Grape downy mildew (GDM); note: ranges in brackets are in %
[1] = tested on: Pseudocercosporella herpotrichoides; assay: In vitro fungicidal activity, Cereal eye spot (PSDCHE); format: cell-based; design: key: 0: None; 3: slight; 5: moderate; 7: severe; 9: complete; settings: 3-7 days of incubation
Procedure: (§1) Test compounds are dissolved in acetone to give concentrations of 25, 10 and 1 ppm and are added to individual cell Walls (24-cell-well plates, Corning), which were previously filled with a suspension of ground plates, Corning), which were previously filled with a suspension of ground fungal mycelium in a chemically defined growth medium. After 3-7 days of incubation, inhibition of […] growth is recorded using the following scale: The data obtained are shown in Table II. [table]

[2] = tested on: Pyricularia grisea f. sp. oryzae; format: in vivo; settings: Rice Blast
Alternara solani = assay: In vivo fungicidal activity, Tomato early blight (TEB); note: ranges in brackets are in %
Botrytis cinera = assay: In vivo fungicidal activity, Pepper Botrytis (PB); note: ranges in brackets are in %
Cercospora beticola = assay: In vivo fungicidal activity, Sugar Beet Cercospora (SBC); note: ranges in brackets are in %
Blumeria graminis = assay: In vivo fungicidal activity, Wheat powdery mildew (WPM); note: ranges in brackets are in %
Pythium ultimum = assay: In vitro fungicidal activity, Fruit rot (PYTHUL); format: cell-based; design: key: 0: None; 3: slight; 5: moderate; 7: severe; 9: complete; settings: 3-7 days of incubation
Procedure: as §1

Rhizoctonia solani = assay: In vitro fungicidal activity, Rice sheath blight (RHIZSO); format: cell-based; design: key: 0: None; 3: slight; 5: moderate; 7: severe; 9: complete; settings: 3-7 days of incubation
Procedure: as §1

Row | Molecule | AS disease control rating (Venturia inaequalis; 12.5 ppm spray) | AS disease control rating (Venturia inaequalis; 50 ppm spray) | AS disease control rating (Venturia inaequalis; 200 ppm spray) | GDM disease control rating (Plasmopara viticola; 12.5 ppm spray) | GDM disease control rating (Plasmopara viticola; 50 ppm spray) | GDM disease control rating (Plasmopara viticola; 200 ppm spray) | PSDCH inhibition of mycelial growth rating ([1]; 1 ppm) | PSDCH inhibition of mycelial growth rating ([1]; 10 ppm) | PSDCH inhibition of mycelial growth rating ([1]; 25 ppm) | RB disease control rating ([2]; 12.5 ppm spray) | RB disease control rating ([2]; 50 ppm spray) | RB disease control rating ([2]; 200 ppm spray) | TEB disease control rating (Alternara solani; 12.5 ppm spray) | TEB disease control rating (Alternara solani; 50 ppm spray) | TEB disease control rating (Alternara solani; 200 ppm spray) | PB disease control rating (Botrytis cinera; 12.5 ppm spray) | PB disease control rating (Botrytis cinera; 50 ppm spray) | PB disease control rating (Botrytis cinera; 200 ppm spray) | SBC disease control rating (Cercospora beticola; 12.5 ppm spray) | SBC disease control rating (Cercospora beticola; 50 ppm spray) | also measured
1 | CCCOc1cc(F)c(-c2c(Cl)nc3n(CCC)cnn3c2=NC(C)C(F)(F)F)c(F)c1 (stereo not drawn) [Example 9] | 0 (0) | 6 (75-89) | 6 (75-89) | 5 (60-74) | 3 (30-44) | 3 (30-44) | 3 | 3 | 5 | 0 (0) | 3 (30-44) | 4 (45-59) | 6 (75-89) | 8 (96-99) | 9 (100) | 2 (15-29) | 1 (1-14) | 2 (15-29) | 8 (96-99) | 8 (96-99) | SBC disease control rating (Cercospora beticola; 200 ppm spray): 8 (96-99); WPM disease control rating (Blumeria graminis; 12.5 ppm spray): 2 (15-29); WPM disease control rating (Blumeria graminis; 50 ppm spray): 6 (75-89); WPM disease control rating (Blumeria graminis; 200 ppm spray): 7 (90-95); PYTHU inhibition of mycelial growth rating (Pythium ultimum; 1 ppm): 0; PYTHU inhibition of mycelial growth rating (Pythium ultimum; 10 ppm): 0; PYTHU inhibition of mycelial growth rating (Pythium ultimum; 25 ppm): 0; RHIZSO inhibition of mycelial growth rating (Rhizoctonia solani; 1 ppm): 7; RHIZSO inhibition of mycelial growth rating (Rhizoctonia solani; 10 ppm): 7; RHIZSO inhibition of mycelial growth rating (Rhizoctonia solani; 25 ppm): 7
2 | CCn1cnn2c(=NC(C)C(F)(F)F)c(-c3c(F)cc(F)cc3F)c(Cl)nc12 (stereo not drawn) [Example 10] | 0 (0) | 0 (0) | 6 (75-89) | 0 (0) | 0 (0) | 0 (0) | 0 | 0 | 0 | 0 (0) | 4 (45-59) | 6 (75-89) | 0 (0) | 4 (45-59) | 5 (60-74) | 4 (45-59) | 0 (0) | 0 (0) | 3 (30-44) | 6 (75-89) | SBC disease control rating (Cercospora beticola; 200 ppm spray): 6 (75-89); WPM disease control rating (Blumeria graminis; 12.5 ppm spray): 0 (0); WPM disease control rating (Blumeria graminis; 50 ppm spray): 0 (0); WPM disease control rating (Blumeria graminis; 200 ppm spray): 0 (0); PYTHU inhibition of mycelial growth rating (Pythium ultimum; 1 ppm): 0; PYTHU inhibition of mycelial growth rating (Pythium ultimum; 10 ppm): 3; PYTHU inhibition of mycelial growth rating (Pythium ultimum; 25 ppm): 5; RHIZSO inhibition of mycelial growth rating (Rhizoctonia solani; 1 ppm): 0; RHIZSO inhibition of mycelial growth rating (Rhizoctonia solani; 10 ppm): 5; RHIZSO inhibition of mycelial growth rating (Rhizoctonia solani; 25 ppm): 5
3 | CCCn1cnn2c(=NC(C)C(F)(F)F)c(-c3c(F)cc(F)cc3F)c(Cl)nc12 (stereo not drawn) [Example 11] | 0 (0) | 6 (75-89) | 7 (90-95) | 0 (0) | 0 (0) | 3 (30-44) | 0 | 0 | 0 | 0 (0) | 3 (30-44) | 4 (45-59) | 0 (0) | 0 (0) | 0 (0) | 0 (0) | 0 (0) | 0 (0) | 0 (0) | 0 (0) | SBC disease control rating (Cercospora beticola; 200 ppm spray): 3 (30-44); WPM disease control rating (Blumeria graminis; 12.5 ppm spray): 0 (0); WPM disease control rating (Blumeria graminis; 50 ppm spray): 0 (0); WPM disease control rating (Blumeria graminis; 200 ppm spray): 0 (0); PYTHU inhibition of mycelial growth rating (Pythium ultimum; 1 ppm): 0; PYTHU inhibition of mycelial growth rating (Pythium ultimum; 10 ppm): 1; PYTHU inhibition of mycelial growth rating (Pythium ultimum; 25 ppm): 1; RHIZSO inhibition of mycelial growth rating (Rhizoctonia solani; 1 ppm): 0; RHIZSO inhibition of mycelial growth rating (Rhizoctonia solani; 10 ppm): 0; RHIZSO inhibition of mycelial growth rating (Rhizoctonia solani; 25 ppm): 0
4 | N-[5-chloro-3-methyl-6-(2,4,6-trifluorophenyl)-4H-[1,2,4]triazolo[1,5-α]pyrimidin-7-ylidene]-N-(2,2,2-trifluoroethyl)-amine [Example 1B] | 4 (45-59) | 4 (45-59) | 5 (60-74) | 0 (0) | 0 (0) | 7 (90-95) | 0 | 1 | 3 | 0 (0) | 0 (0) | 5 (60-74) | 0 (0) | 2 (15-29) | 4 (45-59) | 0 (0) | 0 (0) | 6 (75-89) | 0 (0) | 6 (75-89) | SBC disease control rating (Cercospora beticola; 200 ppm spray): 6 (75-89); WPM disease control rating (Blumeria graminis; 12.5 ppm spray): 0 (0); WPM disease control rating (Blumeria graminis; 50 ppm spray): 0 (0); WPM disease control rating (Blumeria graminis; 200 ppm spray): 0 (0); PYTHU inhibition of mycelial growth rating (Pythium ultimum; 1 ppm): 0; PYTHU inhibition of mycelial growth rating (Pythium ultimum; 10 ppm): 1; PYTHU inhibition of mycelial growth rating (Pythium ultimum; 25 ppm): 5; RHIZSO inhibition of mycelial growth rating (Rhizoctonia solani; 1 ppm): 5; RHIZSO inhibition of mycelial growth rating (Rhizoctonia solani; 10 ppm): 5; RHIZSO inhibition of mycelial growth rating (Rhizoctonia solani; 25 ppm): 5
